# Measured values taken from EP0565593B1, “REDUCING PESTICIDAL INTERACTIONS IN CROPS” (priority 1990, dated 1992).
# Where two headings read alike, the source gives them in different places.
# Key:
# [1] = test system: Corn
# [2] = test system: Corn; remark: listed apart in the source
# [3] = test system: Giant foxtail (GIFT); assay: whole plant or invertebrate; assay type: in vivo
# [4] = test system: Shattercane (SHCA); assay type: in vivo
# [5] = test system: Velvetleaf (VELE); assay type: in vivo, Abutilon theophrasti
# [6] = test system: Velvetleaf (VELE); assay: whole plant or invertebrate; assay type: in vivo, Abutilon theophrasti
# [7] = […], observed 9 days later (Table 29)
# [8] = […], observed 9 days later (Table 30)
# [9] = […], PPI, 13 days after PPI (Table 31)
# [10] = […], observed 8 days later (Table 32)
# [11] = […], observed 8 days later (Table 33)
# [12] = […], PPI, 14 days after PPI (Table 34)
# [13] = Table 50, Biocide No. 8 alone 8.96 kg/Ha PPI, no herbicide, no antidote
# [14] = Table 51, Biocide No. 8 alone 8.96 kg/Ha PPI, observed 13 days after treatment
# [15] = […], observed 7 days after POE (Table 35)
# [16] = […], observed 7 days after POE (Table 36)
SMILES,"% Inhibition Corn [1, 10]","% Inhibition Corn [1, 11]","% Inhibition Corn [2, 12]","% Inhibition GIFT [3, 12]","% Inhibition SHCA [4, 10]","% Inhibition SHCA [4, 11]","% Inhibition VELE [5, 10]","% Inhibition VELE [5, 11]","% Inhibition VELE [6, 12]","% Inhibition Corn [1, 15]","% Inhibition Corn [1, 16]",% Inhibition Corn ([2]; in vivo),% Inhibition GIFT ([3]; in vivo),"% Inhibition SHCA [4, 15]","% Inhibition SHCA [4, 16]","% Inhibition VELE [5, 15]","% Inhibition VELE [5, 16]",% Inhibition VELE ([6]; in vivo),further results
O=C(C(Cl)Cl)N1CC(c2ccco2)OC1c1ccccc1 (centres unmarked) [compound 36],,,,,,,,,,,,,,,,,,,"% Inhibition Corn [1, 7]: 45%; % Inhibition Corn [1, 8]: 45%; % Inhibition Corn [2, 9]: 60%; % Inhibition GIFT [3, 9]: 75%; % Inhibition SHCA [4, 7]: 75%; % Inhibition SHCA [4, 8]: 35%; % Inhibition VELE [5, 7]: 100%; % Inhibition VELE [5, 8]: 80%; % Inhibition VELE [6, 9]: 90%"
N#CCCOC(=O)COC(c1ccccc1)c1ccccc1 [compound 52],20%,45%,40%,65%,70%,25%,85%,75%,85%,,,,,,,,,,
O=C(C(Cl)Cl)N1CCN(C(=O)C(Cl)Cl)CC1 [compound 3],,,,,,,,,,,,,,,,,,,"% Inhibition Corn [1, 7]: 35%; % Inhibition Corn [1, 8]: 60%; % Inhibition Corn [2, 9]: 55%; % Inhibition GIFT [3, 9]: 75%; % Inhibition SHCA [4, 7]: 70%; % Inhibition SHCA [4, 8]: 40%; % Inhibition VELE [5, 7]: 95%; % Inhibition VELE [5, 8]: 70%; % Inhibition VELE [6, 9]: 95%"
CC1(C)OC(c2cc3ccccc3o2)CN1C(=O)C(Cl)Cl (centres unmarked) [compound 38],,,,,,,,,,,,,,,,,,,"% Inhibition Corn [1, 7]: 20%; % Inhibition Corn [1, 8]: 45%; % Inhibition Corn [2, 9]: 50%; % Inhibition GIFT [3, 9]: 70%; % Inhibition SHCA [4, 7]: 80%; % Inhibition SHCA [4, 8]: 25%; % Inhibition VELE [5, 7]: 95%; % Inhibition VELE [5, 8]: 70%; % Inhibition VELE [6, 9]: 85%"
"CCCSP(=O)(OCC)SCCC [Biocide No. 8, O-Ethyl-S,S-dipropyl phosphorothioate, reference compound]",,,,,,,,,,,,,,,,,,,"corn injury ([1]; MOCAP alone at 8.96 kg/ha, Example 51): corn stunting, leaf malformations and stand loss; % Inhibition Corn [1, 13]: 30%; corn injury ([2]; MOCAP applied alone, PPI, Example 52): significant corn injury; % Inhibition Corn [2, 14]: 30%; % Inhibition GIFT [3, 14]: 90%; % Inhibition SHCA [4, 13]: 85%; % Inhibition VELE [5, 13]: 15%; % Inhibition VELE [6, 14]: 20%"
CCOC(=O)c1sc(Br)nc1C(F)(F)F [compound 66],,,,,,,,,,30%,50%,50%,70%,60%,25%,80%,60%,90%,
CCOC(=O)CNC(c1ccc(OC)cc1)c1ccc(OC)cc1 [compound 43],55%,65%,80%,70%,65%,35%,85%,75%,90%,,,,,,,,,,
CCOC(=O)c1sc(I)nc1C(F)(F)F [compound 67],,,,,,,,,,35%,45%,55%,75%,65%,40%,85%,70%,95%,
CC(Cl)C(=O)Nc1nc(C(F)(F)F)c(I)s1 (centres unmarked) [compound 72],,,,,,,,,,70%,60%,75%,75%,75%,30%,85%,70%,90%,
Cc1cccc(C)c1C(OCC(=O)O)c1c(C)cccc1C [compound 56],60%,60%,65%,75%,75%,30%,85%,75%,85%,,,,,,,,,,
CCCCCCOC(=O)c1sc(Cl)nc1C(F)(F)F [compound 62],,,,,,,,,,30%,55%,65%,75%,65%,30%,80%,60%,95%,
CC(C)(C)OC(=O)COC1c2ccccc2CCc2ccccc21 [compound 45],65%,65%,70%,75%,85%,25%,80%,70%,90%,,,,,,,,,,
CCOC(=O)c1sc(Cl)nc1C(F)(F)F [compound 60],,,,,,,,,,40%,60%,60%,75%,60%,35%,80%,65%,90%,
